In patent US20230304010A1, “COMPOSITIONS AND METHODS FOR TREATING VIRAL INFECTIONS” (priority 2020, published 2023):
Read-outs that look alike come from different tables or passages of the source. Ends that are not written are not given here.

Tests used:
[1] = tested on: SARS-CoV-2 Nucleocapsid gene; type: cell-based
SARS-CoV-2 [2] = test: siRNA/ADGN-100 complexes on SARS-CoV2 virus infection, Vero E6 cells; type: cell-based
Vero-6 cells = test: Cellular toxicity of siRNA/ADGN-100 complexes on Vero-6 cells, CellTiter-Glo; conditions: uninfected Vero-6 cells
SARS-CoV-2 [3] = tested on: SARS-CoV-2
in vitro = conditions: uninfected Vero E6 cells
[4] = biological target: SARS-CoV-2 Spike: ACE2 interaction (UniProt P0DTC2+Q9BYF1); test: biochemical; type: binding
[5] = biological target: ACE2:SARS-CoV-2 Spike interaction (UniProt P0DTC2+Q9BYF1); test: biochemical; type: binding
[6] = Nanoparticle formation of peptides with ADGN-106: mean size and polydispersity (Zetasizer); type: physicochemical; conditions: 25° C.; for Mean Size (nm): peptide/ADGN-106 complexes; for PI: polydispersity index of peptide/ADGN-106 complexes
Description: We then tested the ability of the different peptides to form nanoparticle organization in the presence of ADGN-106 or ADGN-100 peptide. […] Peptides were complexed with 5 or 10 molar excess of ADGN-106.

Vero E6 cells = conditions: uninfected Vero E6 cells; for Cell Viability (%): 0.5 µM
SARS-CoV-2 ORF 3A gene = type: cell-based
SARS-CoV-2 ORF 8 gene = type: cell-based
[7] = siRNA complexed with ADGN-100 at molar ratio 1/20, added to Vero-E6 immediately prior to virus infection, read-out: IC50
[8] = read-out: IC50 against SARS-CoV2 virus infection

Chain of SARS-CoV-2 Spike: ACE2 interaction (Q9BYF1 18-740, one chain of several): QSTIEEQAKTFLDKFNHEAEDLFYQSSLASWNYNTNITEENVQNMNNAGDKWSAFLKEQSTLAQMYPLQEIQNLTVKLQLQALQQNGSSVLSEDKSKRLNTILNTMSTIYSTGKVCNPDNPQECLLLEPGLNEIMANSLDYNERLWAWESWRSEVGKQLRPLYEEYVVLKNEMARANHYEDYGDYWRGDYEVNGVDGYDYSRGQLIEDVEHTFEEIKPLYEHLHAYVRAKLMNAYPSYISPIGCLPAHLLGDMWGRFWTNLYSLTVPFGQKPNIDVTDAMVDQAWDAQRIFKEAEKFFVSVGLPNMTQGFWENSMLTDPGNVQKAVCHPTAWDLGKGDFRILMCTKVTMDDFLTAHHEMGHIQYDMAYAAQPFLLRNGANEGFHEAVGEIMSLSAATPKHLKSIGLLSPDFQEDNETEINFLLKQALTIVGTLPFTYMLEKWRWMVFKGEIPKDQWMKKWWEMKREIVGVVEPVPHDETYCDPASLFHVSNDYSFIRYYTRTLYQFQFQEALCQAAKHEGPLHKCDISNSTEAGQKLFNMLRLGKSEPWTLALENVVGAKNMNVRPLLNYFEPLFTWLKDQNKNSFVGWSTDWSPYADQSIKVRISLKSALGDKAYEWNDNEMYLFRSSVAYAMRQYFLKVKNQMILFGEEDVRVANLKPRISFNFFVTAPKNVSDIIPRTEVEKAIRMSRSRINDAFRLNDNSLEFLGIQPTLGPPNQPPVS
Chain of ACE2:SARS-CoV-2 Spike interaction (Q9BYF1 18-740, one chain of several): as above

Molecule: GCCTCTTCTCGTTCCTCATCA (chemistry not given here) [DIVC-8]
- IC50 [1]: 27.3 nM
- IC50 (SARS-CoV-2 [2]; [7]): 117 nM
- TD50 (μM) (Vero-6 cells): 548 + 25 μM

Molecule: CSCC[C@H](NC(=O)[C@H](CC(N)=O)NC(C)=O)C(=O)N[C@H](C(=O)N[C@@H](CCC(N)=O)C(=O)NCC(=O)N[C@@H](Cc1ccccc1)C(=O)N[C@@H](Cc1c[nH]c2ccccc12)C(=O)N[C@@H](CCC(=O)O)C(=O)N[C@@H](CC(N)=O)C(=O)N1CCC[C@H]1C(=O)NCC(=O)NCC(=O)N1CCC[C@H]1C(=O)N[C@H](C(=O)N[C@@H](C)C(=O)N[C@@H](Cc1c[nH]c2ccccc12)C(=O)N[C@@H](CC(=O)O)C(=O)N[C@@H](CC(C)C)C(=O)NCC(=O)N[C@@H](CCCCN)C(=O)NCCCCCC(=O)N[C@@H](CC(C)C)C(=O)N[C@@H](Cc1c[nH]c2ccccc12)C(=O)N[C@@H](CCCNC(=N)N)C(=O)N[C@@H](C)C(=O)N[C@@H](CC(C)C)C(=O)N[C@@H](Cc1c[nH]c2ccccc12)C(=O)N[C@@H](CCCNC(=N)N)C(=O)N[C@@H](CC(C)C)C(=O)N[C@@H](Cc1c[nH]c2ccccc12)C(=O)N[C@@H](CCCNC(=N)N)C(=O)N[C@@H](CO)C(=O)N[C@@H](CC(C)C)C(=O)N[C@@H](Cc1c[nH]c2ccccc12)C(=O)N[C@@H](CCCNC(=N)N)C(=O)N[C@@H](CC(C)C)C(=O)N[C@@H](CC(C)C)C(=O)N[C@@H](Cc1c[nH]c2ccccc12)C(=O)N[C@@H](CCCCN)C(N)=O)[C@@H](C)O)[C@@H](C)O [Seq38]
- Residual Infection (%) (SARS-CoV-2 [3]): 80%
- viability at 0.5 µM (in vitro): 68%
- IC50 ([4]; SARS-CoV-2 Spike:ACE2 IC50): 214 nM
- IC50 ([5]; ACE2:SARS-CoV-2 Spike IC50): 103 ± 17 nM
- Mean Size (nm) [6]: 39 ± 10 nm
- PI [6]: 0.25

Molecule: Ac-S*YGFQPTNGV*-Ava-LWRALWRLWRSLWRLLWK-NH2 [Seq20]
- Residual Infection (%) (SARS-CoV-2 [3]): 65%
- inhibition of viral infection (SARS-CoV-2 [3]): exhibit inhibition of viral infection
- Cell Viability (%) (Vero E6 cells): 91%
- Mean Size (nm) [6]: 68.1 ± 5 nm
- PI [6]: 0.25

Molecule: TGCAGAGTATAAACTTTGTAA (chemistry not given here) [DIVC-35]
- IC50 (SARS-CoV-2 ORF 3A gene): 125 ± 11 nM

Molecule: CAAGTCCTATTTCTGAACATG (chemistry not given here) [DIVC-33]
- IC50 (SARS-CoV-2 ORF 3A gene): 57.2 ± 12 nM

Molecule: GACAAGGCGTTCCAATTAACA (chemistry not given here) [DIVC-3]
- IC50 [1]: 11.4 ± 5 nM
- IC50 (SARS-CoV-2 [2]; [7]): 84 ± 14 nM
- TD50 (μM) (Vero-6 cells): 452 + 20 μM

Molecule: GTGGATGAGGCTGGTTCTAAA [DIVC-83]
- IC50 (SARS-CoV-2 ORF 8 gene): 15.4 ± 3 nM

Molecule: GAACATGTTACCTTCTTCATC (chemistry not given here) [DIVC-34]
- IC50 (SARS-CoV-2 ORF 3A gene): 12.3 ± 1 nM
- IC50 (SARS-CoV-2 [2]; [8]): ~1000 nM
- IC50 (SARS-CoV-2 [2]; [7]): 1450 nM
- TD50 (μM) (Vero-6 cells): 589 + 17 μM

Molecule: Ac-G*NYNYLYRLFK*-Ava-LWRALWRLWRSLWRLLWK-NH2 [Seq15]
- Residual Infection (%) (SARS-CoV-2 [3]): 100%
- IC50 ([4]; read-out: SARS-CoV-2 Spike:ACE2 IC50): > 1000 nM
- Cell Viability (%) (Vero E6 cells): 95%
- IC50 ([5]; read-out: ACE2:SARS-CoV-2 Spike IC50): > 10000 nM
- Mean Size (nm) [6]: 37.5 ± 5 nm
- PI [6]: 0.23

Molecule: GACCCGTGTCCTATTCACTTC [DIVC-82]
- IC50 (SARS-CoV-2 ORF 8 gene): 21.7 ± 7 nM

Molecule: GCGTTGTTCGTTCTATGAAGA (chemistry not given here) [DIVC-84]
- IC50 (SARS-CoV-2 ORF 8 gene): 113 ± 15 nM

Molecule: GTGTAACTTCTTCAATTGTCA (chemistry not given here) [DIVC-32]
- IC50 (SARS-CoV-2 ORF 3A gene): 95.1 ± 7 nM

Molecule: CC(=O)N[C@@H](CCCCN)C(=O)N[C@H](C(=O)N[C@@H](Cc1ccccc1)C(=O)N[C@@H](CC(C)C)C(=O)N[C@@H](CC(=O)O)C(=O)N[C@@H](CCCCN)C(=O)N[C@@H](Cc1ccccc1)C(=O)N[C@@H](CC(N)=O)C(=O)N[C@@H](Cc1c[nH]cn1)C(=O)N[C@@H](CCC(=O)O)C(=O)N[C@@H](C)C(=O)N[C@@H](CCC(=O)O)C(=O)N[C@@H](CC(=O)O)C(=O)N[C@@H](CC(C)C)C(=O)N[C@@H](Cc1ccccc1)C(=O)NCCCCCC(=O)N[C@@H](CC(C)C)C(=O)N[C@@H](Cc1c[nH]c2ccccc12)C(=O)N[C@@H](CCCNC(=N)N)C(=O)N[C@@H](C)C(=O)N[C@@H](CC(C)C)C(=O)N[C@@H](Cc1c[nH]c2ccccc12)C(=O)N[C@@H](CCCNC(=N)N)C(=O)N[C@@H](CC(C)C)C(=O)N[C@@H](Cc1c[nH]c2ccccc12)C(=O)N[C@@H](CCCNC(=N)N)C(=O)N[C@@H](CO)C(=O)N[C@@H](CC(C)C)C(=O)N[C@@H](Cc1c[nH]c2ccccc12)C(=O)N[C@@H](CCCNC(=N)N)C(=O)N[C@@H](CC(C)C)C(=O)N[C@@H](CC(C)C)C(=O)N[C@@H](Cc1c[nH]c2ccccc12)C(=O)N[C@@H](CCCCN)C(N)=O)[C@@H](C)O [Seq34]
- Residual Infection (%) (SARS-CoV-2 [3]): 100%
- viability at 0.5 µM (in vitro): 98%
- IC50 ([4]; SARS-CoV-2 Spike:ACE2 IC50): > 1000 nM
- IC50 ([5]; ACE2:SARS-CoV-2 Spike IC50): > 1000 nM

Molecule: GGTGAAATCAAGGATGCTACT [DIVC-31]
- IC50 (SARS-CoV-2 ORF 3A gene): 18.4 ± 2 nM

Molecule: Ac-KTFLDKFNHEAEDLFPGPKWSAFLKEQSTLAQMYG [Seq28]
- Residual Infection (%) (SARS-CoV-2 [3]): 10%
- fold stronger anti-SARS-CoV-2 activity than hydroxychloroquine sulfate (SARS-CoV-2 [3]): 250 fold
- increase of potency by pre-incubation with SARS CoV-2 prior infection (SARS-CoV-2 [3]): 2 factor
- inhibition of viral infection (SARS-CoV-2 [3]): exhibit inhibition of viral infection
- CC50 (in vitro): 290000 ± 51000 nM
- viability at 0.5 µM (in vitro): 78%
- folds more potent than SBP-1-ADGN-106/ADGN-106 complex [4]: 4 folds
- folds more potent than SBP-1 coupled to ADGN-106 [4]: 3.5 folds
- folds more potent than SBP-1 peptide/ADGN-106 complex [4]: 35 folds
- folds more potent than free SBP-1 [4]: 7 folds
- folds more potent than SBP-1-ADGN-106/ADGN-106 complex [5]: 6 folds
- folds more potent than SBP-1 coupled to ADGN-106 [5]: 6 folds
- folds more potent than SBP-1 peptide/ADGN-106 complex [5]: 40 folds
- folds more potent than free SBP-1 [5]: 15 folds
- Mean Size (nm) [6]: 34.6 ± 7 nm
- PI [6]: 0.18

Molecule: Ac-T*NGVGYQPYK*-Ava-LWRALWRLWRSLWRLLWK-NH2 [Seq22]
- Residual Infection (%) (SARS-CoV-2 [3]): 40%
- inhibition of viral infection (SARS-CoV-2 [3]): exhibit inhibition of viral infection
- reduction of virus infection (SARS-CoV-2 [3]): 60%
- IC50 (SARS-CoV-2 [3]; read-out: D-IC50): 124 ± 14 nM
- IC50 (SARS-CoV-2 [3]; read-out: P-IC50): 145 ± 25 nM
- blocked SARS-CoV-2 Spike: ACE2 interaction [4]: blocked
- fold less potent than Seq20/Seq21 [4]: 3.6 fold
- TD50 (Vero E6 cells): 358 ± 27 µM
- Cell Viability (%) (Vero E6 cells): 87%
- Mean Size (nm) [6]: 54.4 ± 8 nm
- PI [6]: 0.24

Molecule: GTTGATGACCCGTGTCCTATT (chemistry not given here) [DIVC-81]
- IC50 (SARS-CoV-2 ORF 8 gene): > 200 nM

Molecule: CC(=O)N[C@@H](Cc1ccc(O)cc1)C(=O)N[C@@H](Cc1ccccc1)C(=O)N1CCC[C@H]1C(=O)N[C@@H](CC(C)C)C(=O)N[C@@H](CCC(N)=O)C(=O)N[C@@H](CO)C(=O)N[C@@H](Cc1ccc(O)cc1)C(=O)NCC(=O)N[C@@H](Cc1ccccc1)C(=O)N[C@@H](CCC(N)=O)C(=O)N1CCC[C@H]1C(=O)N[C@H](C(=O)N[C@@H](CC(N)=O)C(=O)NCC(=O)N[C@H](C(=O)NCC(=O)N[C@@H](Cc1ccc(O)cc1)C(=O)N[C@@H](CCC(N)=O)C(=O)NCCCCC(=O)N[C@@H](CC(C)C)C(=O)N[C@@H](Cc1c[nH]c2ccccc12)C(=O)N[C@@H](CCCNC(=N)N)C(=O)N[C@@H](C)C(=O)N[C@@H](CC(C)C)C(=O)N[C@@H](Cc1c[nH]c2ccccc12)C(=O)N[C@@H](CCCNC(=N)N)C(=O)N[C@@H](CC(C)C)C(=O)N[C@@H](Cc1c[nH]c2ccccc12)C(=O)N[C@@H](CCCNC(=N)N)C(=O)N[C@@H](CO)C(=O)N[C@@H](CC(C)C)C(=O)N[C@@H](Cc1c[nH]c2ccccc12)C(=O)N[C@@H](CCCNC(=N)N)C(=O)N[C@@H](CC(C)C)C(=O)N[C@@H](CC(C)C)C(=O)N[C@@H](Cc1c[nH]c2ccccc12)C(=O)N[C@@H](CCCCN)C(N)=O)C(C)C)[C@@H](C)O [Seq19]
- Residual Infection (%) (SARS-CoV-2 [3]): 90%
- viability at 0.5 µM (in vitro): 87%
- blocked SARS-CoV-2 Spike: ACE2 interaction [4]: blocked
- IC50 ([4]; SARS-CoV-2 Spike:ACE2 IC50): 90.6 nM
- blocked ACE2:SARS-CoV-2 Spike interaction [5]: blocked
- IC50 ([5]; ACE2:SARS-CoV-2 Spike IC50): 349 ± 26 nM
- Mean Size (nm) [6]: 37.2 ± 5 nm
- PI [6]: 0.24

Molecule: Ac-G*FQPTNGVK*-Ava-LWRALWRLWRSLWRLLWK-NH2 [Seq21]
- Residual Infection (%) (SARS-CoV-2 [3]): 79%
- Cell Viability (%) (Vero E6 cells): 78%
- Mean Size (nm) [6]: 78.2 ± 7 nm
- PI [6]: 0.3

Molecule: KWRSAGWRWRLWRVRSWSR [ADGN-100, reference compound]
- TD50 (μM) (Vero-6 cells): 368 + 18 μM

Molecule: GTCCTATTCACTTCTATTCTA (chemistry not given here) [DIVC-85]
- IC50 (SARS-CoV-2 [2]; [8]): ~1000 nM
- IC50 (SARS-CoV-2 [2]; [7]): 1220 nM
- TD50 (μM) (Vero-6 cells): 248 + 35 μM
- IC50 (SARS-CoV-2 ORF 8 gene): 10.8 ± 2 nM
